Test results from patent US7368255B2, “RUNX3 gene showing anti-tumor activity and use thereof” (priority 2001, dated 2008).
Entries after “also recorded” stand apart in the source; their conditions may differ.

Columns and labels:
RUNX3 gene expression = test: Reactivation of RUNX3 gene expression, RT-PCR; type: cell-based, human; details: AZA 300 nM, TSA 1 mM, alone or in combination, 3 days, NUGC3, MKN28, MKN74 cell lines
Description: To determine whether the DNA methylation observed in Example 5-1 is the direct cause of the inactivation of the RUNX3 gene, the influence of a DNA methyltransferase inhibitor and a histone deacetylase inhibitor on the reactivation of the RUNX3 gene expression was analyzed.
The NUGC3, MKN28, and MKN74 cell lines (selected randomly from the cell lines showing no RUNX3 gene expression by RT-PCR analysis) were treated with […] (AZA, 300 nM), which inhibits DNA methyltransferase, and trichostatin A (TSA, […]), which inhibits histone deacetylase, alone or in combination. After 3 days of the treatment, total RNA was isolated from each cell line in accordance with the same standardized single-step guanidium method used in Example 4-1, and then analyzed for the expression of the RUNX3 gene by RT-PCR using the PS-N primer pair of SEQ. ID. NOS: 4 and 5.

SNU16-Rx3-AS-c12 cells [1] = test: TGF-β1-induced cell death, viable cell counts; type: cell-based; details: TGF-β1 1 ng/ml; SNU16-Rx3-AS-c12 cells (antisense RUNX3)
SNU16-Rx3-AS-c11 cells [2] = test: TGF-β1-induced cell death, viable cell counts; type: cell-based; details: TGF-β1 1 ng/ml; SNU16-Rx3-AS-c11 cells (antisense RUNX3)
SNU16 cells [3] = test: TGF-β1-induced cell death, viable cell counts; type: cell-based; details: TGF-β1 1 ng/ml
SNU16-Rx3-AS-c11 cells [4] = test: Apoptotic DNA bands by genomic DNA electrophoresis after TGF-β1; type: cell-based; details: TGF-β1 1 ng/ml, 6 hours
Description: (§1) Cells dying through the programmed cell death pathway reveal a distinct pattern of DNA bands when electrophoresed in an agarose gel. After being treated with 1 ng/ml TGF-β1 for 6 hours, the control-SNU16, SNU16-Rx3-AS-c11, and SNU16-Rx3-AS-c12 strains were lysed to isolate genomic DNAs according to a standard method (Sambrook et al., 1988, Molecular Cloning: a laboratory manual, 2nd Ed. Cold Spring Harbor Laboratory, Cold Spring Harbor, N.Y., USA). 0.2 μg of each of the genomic DNA preparations was electrophoresed on a 1.5% agarose gel and visualized with ethidium bromide under UV light.

SNU16-Rx3-AS-c12 cells [5] = test: as above; type: cell-based; details: TGF-β1 1 ng/ml, 6 hours
Description: as §1

SNU16 cells [6] = test: as above; type: cell-based; details: TGF-β1 1 ng/ml, 6 hours
Description: as §1

| Compound | expression of the RUNX3 gene (RT-PCR) (RUNX3 gene expression) | expression of the RUNX3 gene (RT-PCR) (RUNX3 gene expression; listed as 5-aza-2-deoxycytidine) | cell death after TGF-β1 treatment (SNU16-Rx3-AS-c12 cells [1]) | cell death after TGF-β1 treatment (SNU16-Rx3-AS-c11 cells [2]) | time within which SNU16 cells were killed (SNU16 cells [3]) [days] | apoptotic DNA bands (SNU16-Rx3-AS-c11 cells [4]) | apoptotic DNA bands (SNU16-Rx3-AS-c12 cells [5]) | apoptotic DNA bands (SNU16 cells [6]) |
| --- | --- | --- | --- | --- | --- | --- | --- | --- |
| CC(/C=C/C(=O)NO)=C\[C@@H](C)C(=O)c1ccc(N(C)C)cc1 [trichostatin A] | allows the RUNX3 gene to be expressed; also recorded: the expression of the RUNX3 gene was induced |  |  |  |  |  |  |  |
| Nc1ncn([C@H]2C[C@H](O)[C@@H](CO)O2)c(=O)n1 | the expression of the RUNX3 gene was induced | allows the RUNX3 gene to be expressed |  |  |  |  |  |  |
| TGF-β1: TGF-β1 cytokine used at 1 ng/ml to induce cell death in SNU16 cells |  |  | did not kill | did not kill | ≤ 2 | no apoptotic bands were observed | no apoptotic bands were observed | apoptotic DNA bands were formed; also recorded: These bands are apparent |
